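Briefly, cells in 96-well plates were exposed to five compound concentrations for 48 h, and endpoints were estimated by linear interpolation. At the GI50, growth is halved.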 The source made the active and inactive calls. Rule as the data show it: active = GI50 up to about 1.1 µM and inactive = higher.
Columns and labels:
Assay in all cases: NCI tumour cell line growth inhibition, 48 h
BT-549 = system: BT-549
HCT-116 = system: HCT-116
RPMI-8226 = system: RPMI-8226
SK-OV-3 = system: SK-OV-3
HCT-15 = system: HCT-15
SR = system: SR
Malme-3M = system: Malme-3M
SNB-19 = system: SNB-19
ACHN = system: ACHN
MDA-N = system: MDA-N
SF-268 = system: SF-268
T47D = system: T47D
UO-31 = system: UO-31
SK-MEL-2 = system: SK-MEL-2
TK-10 = system: TK-10
NCI-H522 = system: NCI-H522
NCI/ADR-RES = system: NCI/ADR-RES
SW-620 = system: SW-620
UACC-62 = system: UACC-62
HCC 2998 = system: HCC 2998

| SMILES | GI50 (BT-549) | GI50 (HCT-116) | GI50 (RPMI-8226) | GI50 (SK-OV-3) | GI50 (HCT-15) [µM] | GI50 (SR) | GI50 (Malme-3M) | GI50 (SNB-19) | GI50 (ACHN) | GI50 (MDA-N) | GI50 (SF-268) | GI50 (T47D) | GI50 (UO-31) | GI50 (SK-MEL-2) | GI50 (TK-10) | GI50 (NCI-H522) | GI50 (NCI/ADR-RES) | GI50 (SW-620) | GI50 (UACC-62) | GI50 (HCC 2998) |
| --- | --- | --- | --- | --- | --- | --- | --- | --- | --- | --- | --- | --- | --- | --- | --- | --- | --- | --- | --- | --- |
| Oc1ccc2ccccc2c1/N=N/c1ccc(Cl)cc1 | > 100 µM (inactive) | 51.9 µM (inactive) | > 100 µM (inactive) | > 100 µM (inactive) | > 100 | 39.5 µM (inactive) | > 100 µM (inactive) | > 100 µM (inactive) | > 100 µM (inactive) | > 100 µM (inactive) | > 100 µM (inactive) | > 100 µM (inactive) | > 100 µM (inactive) | > 100 µM (inactive) | > 100 µM (inactive) | > 100 µM (inactive) | > 100 µM (inactive) | > 100 µM (inactive) | > 100 µM (inactive) | – |
| CNS(=O)(=O)c1ccc2c(c1)/C(=C1/Nc3ccccc3C1=O)C(=O)N2 | 66.4 µM (inactive) | > 100 µM (inactive) | > 100 µM (inactive) | 92.9 µM (inactive) | 49.4 | – | > 100 µM (inactive) | 20.9 µM (inactive) | > 100 µM (inactive) | > 100 µM (inactive) | > 100 µM (inactive) | > 100 µM (inactive) | > 100 µM (inactive) | > 100 µM (inactive) | > 100 µM (inactive) | > 100 µM (inactive) | 67.8 µM (inactive) | > 100 µM (inactive) | > 100 µM (inactive) | > 100 µM (inactive) |
| CCCCOc1ccc(S(=O)(=O)/N=C(\NN)Nc2ccc(Cl)cc2)cc1 | > 100 µM (inactive) | 20 µM (inactive) | 30.1 µM (inactive) | 27 µM (inactive) | 36 | 21.2 µM (inactive) | 26.9 µM (inactive) | 53.5 µM (inactive) | 69.7 µM (inactive) | 32.3 µM (inactive) | 17.4 µM (inactive) | 16.2 µM (inactive) | 18.2 µM (inactive) | > 100 µM (inactive) | 43.5 µM (inactive) | – | 24.5 µM (inactive) | 29.4 µM (inactive) | > 100 µM (inactive) | – |
| COc1cc(/C=N/n2c(Cc3ccc(Cl)cc3)n[nH]c2=O)cc(OC)c1OC | > 100 µM (inactive) | > 100 µM (inactive) | – | > 100 µM (inactive) | > 100 | – | > 100 µM (inactive) | > 100 µM (inactive) | > 100 µM (inactive) | > 100 µM (inactive) | 46.3 µM (inactive) | > 100 µM (inactive) | > 100 µM (inactive) | > 100 µM (inactive) | – | – | > 100 µM (inactive) | > 100 µM (inactive) | > 100 µM (inactive) | 37.7 µM (inactive) |
| NN/C(=N\S(=O)(=O)c1cc2ccccc2o1)Nc1ccc(Cl)cc1 | 57.7 µM (inactive) | > 100 µM (inactive) | > 100 µM (inactive) | 42.8 µM (inactive) | > 100 | > 100 µM (inactive) | > 100 µM (inactive) | 60.8 µM (inactive) | > 100 µM (inactive) | > 100 µM (inactive) | 33.9 µM (inactive) | 28.2 µM (inactive) | > 100 µM (inactive) | > 100 µM (inactive) | 72.6 µM (inactive) | 24.4 µM (inactive) | > 100 µM (inactive) | > 100 µM (inactive) | > 100 µM (inactive) | – |
| O=C(O)CC(Nc1ccccc1)C(=O)O (stereo not given) | > 100 µM (inactive) | > 100 µM (inactive) | > 100 µM (inactive) | > 100 µM (inactive) | > 100 | > 100 µM (inactive) | > 100 µM (inactive) | > 100 µM (inactive) | > 100 µM (inactive) | > 100 µM (inactive) | > 100 µM (inactive) | > 100 µM (inactive) | > 100 µM (inactive) | > 100 µM (inactive) | > 100 µM (inactive) | > 100 µM (inactive) | > 100 µM (inactive) | > 100 µM (inactive) | > 100 µM (inactive) | – |
| COc1cc(C2c3[nH]c4ccccc4c3C[C@H]3COC(=O)N23)cc(OC)c1OC (stereo not given in full) | 0.163 µM (active) | 0.0416 µM (active) | 0.0676 µM (active) | 0.0366 µM (active) | 0.0471 | 0.0373 µM (active) | 0.0453 µM (active) | 0.0803 µM (active) | 0.214 µM (active) | 0.0181 µM (active) | 0.132 µM (active) | > 10 µM (inactive) | 0.0431 µM (active) | 0.0655 µM (active) | 5.36 µM (inactive) | 0.015 µM (active) | – | 0.051 µM (active) | 0.0348 µM (active) | 0.131 µM (active) |
| Clc1ccc(CSC2=NCCN2)cc1Cl | 18.8 µM (inactive) | 14.9 µM (inactive) | 6.75 µM (inactive) | 24.6 µM (inactive) | 15 | – | 13 µM (inactive) | 32.3 µM (inactive) | 15 µM (inactive) | 11.7 µM (inactive) | 14.9 µM (inactive) | 7.19 µM (inactive) | 11.4 µM (inactive) | – | 16.7 µM (inactive) | 4.5 µM (inactive) | 20.1 µM (inactive) | 16.2 µM (inactive) | 15.9 µM (inactive) | 15.2 µM (inactive) |
| O=C(COc1cc(=O)oc2ccccc12)c1ccccc1 | 24.6 µM (inactive) | 17.9 µM (inactive) | > 100 µM (inactive) | – | > 100 | > 100 µM (inactive) | > 100 µM (inactive) | 21.7 µM (inactive) | 19.8 µM (inactive) | 47 µM (inactive) | 48.5 µM (inactive) | 25.4 µM (inactive) | > 10 µM (inactive) | 30.7 µM (inactive) | > 100 µM (inactive) | 32.4 µM (inactive) | – | 44.8 µM (inactive) | 16.7 µM (inactive) | > 100 µM (inactive) |
| COc1ccc([S+]([O-])Cc2cc(OC)ccc2OC)cc1 (stereo not given) | > 100 µM (inactive) | > 100 µM (inactive) | – | > 100 µM (inactive) | > 100 | – | > 100 µM (inactive) | > 100 µM (inactive) | > 100 µM (inactive) | > 100 µM (inactive) | > 100 µM (inactive) | > 100 µM (inactive) | > 100 µM (inactive) | – | > 100 µM (inactive) | > 100 µM (inactive) | > 100 µM (inactive) | > 100 µM (inactive) | > 100 µM (inactive) | > 100 µM (inactive) |
| O=C(/C=C/c1ccc([N+](=O)[O-])cc1)c1nc2ccccc2[nH]1 | > 62.8 µM (inactive) | 1.88 µM (inactive) | 5.73 µM (inactive) | > 100 µM (inactive) | 33 | 2.49 µM (inactive) | > 100 µM (inactive) | > 93.3 µM (inactive) | 74.3 µM (inactive) | 72.1 µM (inactive) | 39.4 µM (inactive) | 29.2 µM (inactive) | > 69.8 µM (inactive) | > 77.8 µM (inactive) | 3.57 µM (inactive) | 32.9 µM (inactive) | > 48.2 µM (inactive) | 26.2 µM (inactive) | 5.89 µM (inactive) | – |
| CC1=CC(=O)C(=CN2C(=O)/C(=C\c3cccnc3)NC2=S)C(=O)O1 | > 100 µM (inactive) | > 100 µM (inactive) | – | > 100 µM (inactive) | > 100 | – | – | > 100 µM (inactive) | > 100 µM (inactive) | > 100 µM (inactive) | – | > 100 µM (inactive) | > 100 µM (inactive) | > 100 µM (inactive) | > 100 µM (inactive) | – | > 100 µM (inactive) | > 100 µM (inactive) | – | > 100 µM (inactive) |
| CC(NC(=O)c1ccccc1)NC(=O)C(C)C(=O)Nc1ccccc1 (stereo not given) | > 100 µM (inactive) | > 100 µM (inactive) | > 100 µM (inactive) | > 100 µM (inactive) | > 100 | > 100 µM (inactive) | > 100 µM (inactive) | 27.4 µM (inactive) | > 100 µM (inactive) | > 100 µM (inactive) | 62.2 µM (inactive) | > 100 µM (inactive) | > 100 µM (inactive) | > 100 µM (inactive) | 75.2 µM (inactive) | > 100 µM (inactive) | > 100 µM (inactive) | > 100 µM (inactive) | > 100 µM (inactive) | – |
| Cc1ccc(S(=O)(=O)N/N=C2/C3CC4CCC2C4C3)cc1 (stereo not given) | > 100 µM (inactive) | > 100 µM (inactive) | > 100 µM (inactive) | > 100 µM (inactive) | > 100 | – | > 100 µM (inactive) | – | > 100 µM (inactive) | > 100 µM (inactive) | > 100 µM (inactive) | > 100 µM (inactive) | > 100 µM (inactive) | – | > 100 µM (inactive) | > 100 µM (inactive) | > 100 µM (inactive) | > 100 µM (inactive) | > 100 µM (inactive) | > 100 µM (inactive) |
| Cc1cn([C@@H]2O[C@H](CO[Si](C)(C)C(C)(C)C)[C@]3(O[C@H]3C(=O)NN)[C@H]2O[Si](C)(C)C(C)(C)C)c(=O)[nH]c1=O | 5.38 µM (inactive) | 4.08 µM (inactive) | 4.29 µM (inactive) | 18.1 µM (inactive) | 4.32 | – | 3.39 µM (inactive) | 7.66 µM (inactive) | 5.86 µM (inactive) | 5.78 µM (inactive) | 3.59 µM (inactive) | 2.36 µM (inactive) | 14.2 µM (inactive) | 6.37 µM (inactive) | 12.7 µM (inactive) | 2.2 µM (inactive) | 15.6 µM (inactive) | 5.73 µM (inactive) | 10.6 µM (inactive) | 3.13 µM (inactive) |

From ChEMBL document CHEMBL1201862, “PubChem BioAssay data set” (2004)
